Columns and labels:
Safety assessment = format: in vivo, human; conditions: 36 healthy male subjects, 7-day treatments
[1] = cited from earlier work
HbA1c = conditions: 5 mg dose daily for 12 weeks, patients with type 2 DM with inadequate glycemic control with diet and exercise alone; cited from earlier work
[2] = cited from earlier work; remark: listed apart in the source
[3] = system: active GLP-1, glucose, glucagon, insulin, and C-peptide; experiment: Oral glucose tolerance test; format: in vivo, human; conditions: significantly smaller than baseline

Row | SMILES | Number of subjects with AEs possibly related to the study drug(s) (Safety assessment) | Fraction eliminated by renal excretion [1] | Reduction of mean HbA1c (HbA1c) | Number of AEs possibly related to the study drug(s) (Safety assessment; all AEs mild) | Half-life ([2]; after a single administration, doses between 1.25 and 60 mg, first-in-human study) | Dose dependence of pharmacokinetics ([2]; doses between 1.25 and 60 mg, single administration) | Tolerability ([2]; first-in-human study, single administration) | AUC of glucose during OGTT relative to baseline [3]
1 | CN(C)C(=N)N=C(N)N [Metformin, reference compound] | 24 subjects | ~ 90 % of absorbed metformin |  |  |  |  |  | 
2 | CC(C)(C)OC[C@@H]1C(=O)NCCN1C(=O)C[C@H](N)Cc1cc(F)c(F)cc1F [Evogliptin] |  |  | 0.66 % point | 14 AEs | ≥ 30 h | dose proportional pharmacokinetics | well tolerated | ~ 0.87 fold
